Data from article PMC5402281, “Functional, thermodynamics, structural and biological studies of in silico-identified inhibitors of Mycobacterium tuberculosis enoyl-ACP(CoA) reductase enzyme” (Scientific Reports, 2017).

Key:
MtInhA = molecular target: T1, MtInhA (Mycobacterium tuberculosis, UniProt P9WGR1); assay: MtInhA enzyme inhibition by steady-state kinetics (NADH oxidation at 340 nm); assay type: biochemical; conditions: for Ki: EI complex; for mode of inhibition with respect to NADH / mode of inhibition with respect to DD-CoA: Lineweaver-Burk plot
T1 construct: made in house
T1 sequence (P9WGR1 whole entry, looked up): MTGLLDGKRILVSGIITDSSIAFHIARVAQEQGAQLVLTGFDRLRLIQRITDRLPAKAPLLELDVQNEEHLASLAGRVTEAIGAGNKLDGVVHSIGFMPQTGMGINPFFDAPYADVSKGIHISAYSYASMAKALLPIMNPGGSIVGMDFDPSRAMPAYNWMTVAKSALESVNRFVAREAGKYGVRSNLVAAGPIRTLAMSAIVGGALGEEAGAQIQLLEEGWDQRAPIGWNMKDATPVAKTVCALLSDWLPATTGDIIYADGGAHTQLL
Description: In order to assess the relative potency of the compounds, inhibition studies were performed by steady-state kinetic studies using a UV-2550 UV/Visible spectrophotometer (Shimadzu^©), monitoring the NADH oxidation at 340 nm (εβ-NADH = […]), in the forward direction. Experiments were performed at 25 °C, in 100 mM Pipes pH 7.0 and were started with the addition of the 2.2 μM MtInhA to a total reaction volume of 500 μL, and monitoring the change in absorbance for 1 min. […] This is needed as IC50 and classical competitive, non-competitive and uncompetitive inhibition modes follow a rapid equilibrium process. Accordingly, MtInhA (2.2 μM) was pre-incubated with inhibitor (10 μM), aliquots were taken at different times and added to the reaction mixture containing NADH (60 μM) and DD-CoA (45 μM), and initial velocity measurements were plotted as a function of time of pre-incubation[6]. Control experiments were carried out pre-incubating MtInhA (2.2 μM) with DMSO (5%) in the absence of inhibitors, and initial velocity measured as a function of time of pre-incubation[6].
The IC50 value, which defines the concentration of inhibitor required to […], was calculated for each compound. The maximal rate for the enzyme reaction was determined in the absence of inhibitor, in the presence of fixed non-saturating concentration of NADH (60 μM ≅ Km) and DD-CoA (45 μM ≅ Km)[10][11][14]. The reaction velocity was analyzed as the percentage of inhibition as a function of inhibitor concentration and data were fitted to Eq 1.
The most promising compounds were further evaluated to assess the inhibition profile and to determine the inhibition constant (Ki). Initial rates were measured as a function of NADH concentration (10–160 μM) at fixed non-saturating DD-CoA concentration (45 μM) and fixed-varied inhibitor concentrations (0.5–120 μM). The Ki values towards NADH were calculated using the uncompetitive equation (Eq. 2) for compounds Labio_6 and Labio_16, in which [I] is the inhibitor concentration, [S] is the substrate concentration, Km and Vmax are, respectively, the Michaelis-Menten constant and maximum velocity, and Kii is the overall inhibition constant for the ESI complex. The Ki of Labio_03 was determined previously.
For compounds Labio_2, Labio_11, Labio_15 and Labio_17, the Ki values with respect to NADH were calculated using Eq. 3, which describes a non-competitive inhibition, where [I] is the inhibitor concentration, [S] is the substrate concentration, Km and Vmax are, respectively, the Michaelis-Menten constant and maximum velocity, Kii is the overall inhibition constant for the ESI complex and Kis is the overall inhibition constant for the EI complex.
Inhibition studies were also carried out in the presence of fixed non-saturating concentration of NADH (60 μM) and fixed-varied inhibitor concentrations (0.5–120 μM), when DD-CoA was the variable substrate (15–135 μM). For compounds Labio_2, Labio_6, and Labio_16, the inhibition constants for the DD-CoA substrate were determined using Eq. 3 for the non-competitive mode of inhibition. For compounds Labio_11, Labio_15 and Labio_17, the Ki for this substrate were calculated from data fitting to the equation for competitive inhibition (Eq. 4), in which [I] is the inhibitor concentration, [S] is the substrate concentration, Km and Vmax are, respectively, the Michaelis-Menten constant and maximum velocity, and Kis is the overall inhibition constant for the EI complex.

Zebrafish embryos = conditions: zebrafish (Danio rerio)
Description: An HPLC equipped with a quaternary pump, DAD detector, degasser, column oven and an automatic injection system was used in this set of experiments (Thermo® Scientific, Sunnyvale, USA). Stock standard solutions (1 M) of Labio_16 and Labio_17 were prepared by diluting each standard in DMSO. Standard solutions were prepared by diluting the stock solution in fish water, yielding final concentrations of 0.625, 1.25, 2.50, 5.0 and 10.0 μM for Labio_16; and 0.625, 1.25, 2.50, 5.0, 10.0 and 20 μM for Labio_17 in a final volume of 0.5 mL.
Chromatographic separations were carried out using a Nucleodur C-18 column at 20 °C. The mobile phase was a 20:80% mixture of 0.1% glacial acetic acid and acetonitrile:methanol 1:1 (v/v) for Labio_16, and a mixture of 20:80% of 20 mM of ammonium acetate and acetonitrile:methanol 1:1 (v/v) for Labio_17. A flow rate of 1.5 mL min^−1 was employed in isocratic mode, with run time of 7 minutes for Labio_16 and 12 minutes for Labio_17. The DAD detector was set at 300 nm and a full scan was continuously performed. The calibration curve for both analytes presented a correlation coefficient above 0.99.

[1] = Ki DD-CoA Kis, varied DD-CoA 15–135 μM, fixed NADH 60 μM
[2] = varied NADH 10–160 μM, fixed DD-CoA 45 μM, ESI complex

SMILES	IC50 (MtInhA) [µM]	Ki (MtInhA; [1]) [µM]	mode of inhibition with respect to NADH (MtInhA; fixed DD-CoA 45 μM)	mode of inhibition with respect to DD-CoA (MtInhA; fixed NADH 60 μM)	Ki DD-CoA Kii (MtInhA; varied DD-CoA 15–135 μM, fixed NADH 60 μM, ESI complex) [µM]	Ki NADH Kii (MtInhA; [2]) [µM]	decrease of compound in in vivo assay medium (Zebrafish embryos) [%]	Ki (MtInhA; Ki NADH Kis, varied NADH 10–160 μM, fixed DD-CoA 45 μM) [µM]
Cc1ccccc1OCc1nc(-c2ccc(NC(=O)c3cccs3)cc2)no1 [Labio_16]	24 ± 2	13 ± 1	uncompetitive	non-competitive	8 ± 3	7 ± 1	55 ± 2	–
CCOC(=O)c1ccc2nc(C)cc(Nc3ccc(N4CCCCC4)cc3)c2c1 [Labio_17]	20 ± 3	6.3 ± 0.7	non-competitive	competitive	–	8 ± 1	55 ± 2	8 ± 3
